In ChEMBL document CHEMBL5058645, “Data for DCP probe JNJ-6204” (2022):

Columns and labels:
[1] = target: Activin receptor type-1B (Homo sapiens) (UniProt P36896); assay: ALK4(h) Kinase panel; conditions: Compound concentration 1.0 uM, tested as the 2H-labelled form
[2] = target: Bone morphogenetic protein receptor type-1B (Homo sapiens) (UniProt O00238); assay: ALK6(h) Kinase panel; conditions: Compound concentration 1.0 uM, tested as the 2H-labelled form
[3] = target: Aurora kinase C (Homo sapiens) (UniProt Q9UQB9); assay: Aurora-C(h) Kinase panel; conditions: Compound concentration 1.0 uM, tested as the 2H-labelled form
[4] = target: Tyrosine-protein kinase BTK (Homo sapiens) (UniProt Q06187); assay: BTK(h) Kinase panel; conditions: Compound concentration 1.0 uM, tested as the 2H-labelled form
[5] = target: Serine/threonine-protein kinase B-raf (Homo sapiens) (UniProt P15056); assay: B-Raf(h) Kinase panel; conditions: Compound concentration 1.0 uM, tested as the 2H-labelled form
Chain of Serine/threonine-protein kinase B-raf (Homo sapiens) (P15056 whole entry): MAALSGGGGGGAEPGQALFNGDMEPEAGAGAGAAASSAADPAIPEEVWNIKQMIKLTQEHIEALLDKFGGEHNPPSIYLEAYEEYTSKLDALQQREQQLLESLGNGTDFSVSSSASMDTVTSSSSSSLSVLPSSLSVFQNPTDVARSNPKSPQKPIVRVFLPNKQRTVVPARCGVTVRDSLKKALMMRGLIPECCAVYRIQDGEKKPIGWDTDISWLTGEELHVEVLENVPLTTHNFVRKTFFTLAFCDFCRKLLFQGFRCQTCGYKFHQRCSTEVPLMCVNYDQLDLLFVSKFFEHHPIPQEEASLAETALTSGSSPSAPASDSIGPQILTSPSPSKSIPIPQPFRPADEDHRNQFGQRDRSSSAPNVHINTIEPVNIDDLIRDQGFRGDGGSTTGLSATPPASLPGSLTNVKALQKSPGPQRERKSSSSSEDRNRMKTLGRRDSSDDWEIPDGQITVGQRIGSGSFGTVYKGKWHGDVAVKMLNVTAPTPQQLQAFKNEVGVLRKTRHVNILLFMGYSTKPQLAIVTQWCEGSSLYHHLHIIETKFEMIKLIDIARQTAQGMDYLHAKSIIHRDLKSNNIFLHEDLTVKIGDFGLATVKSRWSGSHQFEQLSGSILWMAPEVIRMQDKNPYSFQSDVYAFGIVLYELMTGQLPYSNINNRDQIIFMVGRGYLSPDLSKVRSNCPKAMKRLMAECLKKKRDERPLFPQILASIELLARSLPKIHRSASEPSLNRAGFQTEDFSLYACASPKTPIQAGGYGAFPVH

[6] = target: Cyclin-dependent kinase 1 (Homo sapiens) (UniProt P06493); assay: CDK1/cyclinB(h) Kinase panel; conditions: Compound concentration 1.0 uM, tested as the 2H-labelled form
[7] = target: Cyclin-dependent kinase 9 (Homo sapiens) (UniProt P50750); assay: CDK9/cyclin T1(h) Kinase panel; conditions: Compound concentration 1.0 uM, tested as the 2H-labelled form
Chain of Cyclin-dependent kinase 9 (Homo sapiens) (P50750 whole entry): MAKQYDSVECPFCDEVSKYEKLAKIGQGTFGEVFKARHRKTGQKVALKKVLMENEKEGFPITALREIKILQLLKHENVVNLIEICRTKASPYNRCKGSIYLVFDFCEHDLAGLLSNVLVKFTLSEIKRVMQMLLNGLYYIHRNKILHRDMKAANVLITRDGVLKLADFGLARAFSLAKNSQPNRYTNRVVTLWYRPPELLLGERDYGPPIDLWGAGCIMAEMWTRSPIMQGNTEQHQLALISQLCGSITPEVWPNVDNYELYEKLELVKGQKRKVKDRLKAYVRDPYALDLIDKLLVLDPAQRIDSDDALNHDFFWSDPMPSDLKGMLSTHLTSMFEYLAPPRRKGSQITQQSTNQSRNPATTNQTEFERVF

[8] = target: Cyclin-dependent kinase-like 1 (Homo sapiens) (UniProt Q00532); assay: CDKL1(h) Kinase panel; conditions: Compound concentration 1.0 uM, tested as the 2H-labelled form
Chain of Cyclin-dependent kinase-like 1 (Homo sapiens) (Q00532 whole entry): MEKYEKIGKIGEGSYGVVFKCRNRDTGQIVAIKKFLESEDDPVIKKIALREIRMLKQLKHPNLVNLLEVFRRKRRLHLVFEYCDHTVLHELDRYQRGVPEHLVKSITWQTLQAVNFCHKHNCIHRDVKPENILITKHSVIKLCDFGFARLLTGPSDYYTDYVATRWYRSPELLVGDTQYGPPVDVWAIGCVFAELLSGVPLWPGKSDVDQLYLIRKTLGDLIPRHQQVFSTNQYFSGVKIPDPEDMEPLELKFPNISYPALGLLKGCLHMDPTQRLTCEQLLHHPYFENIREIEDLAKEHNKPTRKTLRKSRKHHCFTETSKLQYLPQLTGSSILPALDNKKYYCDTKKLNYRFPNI

[9] = target: Cyclin-dependent kinase-like 2 (Homo sapiens) (UniProt Q92772); assay: CDKL2(h) Kinase panel; conditions: Compound concentration 1.0 uM, tested as the 2H-labelled form
[10] = target: Casein kinase I isoform gamma-3 (Homo sapiens) (UniProt Q9Y6M4); assay: CK1gamma3(h) Kinase panel; conditions: Compound concentration 1.0 uM, tested as the 2H-labelled form
[11] = target: Casein kinase II subunit alpha' (Homo sapiens) (UniProt P19784); assay: CK2alpha2(h) Kinase panel; conditions: Compound concentration 1.0 uM, tested as the 2H-labelled form
[12] = target: Ephrin type-A receptor 5 (Homo sapiens) (UniProt P54756); assay: EphA5(h) Kinase panel; conditions: Compound concentration 1.0 uM, tested as the 2H-labelled form
[13] = target: Ephrin type-A receptor 7 (Homo sapiens) (UniProt Q15375); assay: EphA7(h) Kinase panel; conditions: Compound concentration 1.0 uM, tested as the 2H-labelled form
[14] = target: Fibroblast growth factor receptor 1 (Homo sapiens) (UniProt P11362); assay: FGFR1(h) Kinase panel; conditions: Compound concentration 1.0 uM, tested as the 2H-labelled form
[15] = target: Tyrosine-protein kinase Fyn (Homo sapiens) (UniProt P06241); assay: Fyn(h) Kinase panel; conditions: Compound concentration 1.0 uM, tested as the 2H-labelled form
[16] = target: Homeodomain-interacting protein kinase 2 (Homo sapiens) (UniProt Q9H2X6); assay: HIPK2(h) Kinase panel; conditions: Compound concentration 1.0 uM, tested as the 2H-labelled form
[17] = target: Eukaryotic translation initiation factor 2-alpha kinase 1 (Homo sapiens) (UniProt Q9BQI3); assay: HRI(h) Kinase panel; conditions: Compound concentration 1.0 uM, tested as the 2H-labelled form
[18] = target: Serine/threonine-protein kinase ICK (Homo sapiens) (UniProt Q9UPZ9); assay: ICK(h) Kinase panel; conditions: Compound concentration 1.0 uM, tested as the 2H-labelled form
[19] = target: Insulin-like growth factor 1 receptor (Homo sapiens) (UniProt P08069); assay: IGF-1R(h), activated Kinase panel; conditions: Compound concentration 1.0 uM, tested as the 2H-labelled form
Chain of Insulin-like growth factor 1 receptor (Homo sapiens) (P08069 31-736 limits assumed): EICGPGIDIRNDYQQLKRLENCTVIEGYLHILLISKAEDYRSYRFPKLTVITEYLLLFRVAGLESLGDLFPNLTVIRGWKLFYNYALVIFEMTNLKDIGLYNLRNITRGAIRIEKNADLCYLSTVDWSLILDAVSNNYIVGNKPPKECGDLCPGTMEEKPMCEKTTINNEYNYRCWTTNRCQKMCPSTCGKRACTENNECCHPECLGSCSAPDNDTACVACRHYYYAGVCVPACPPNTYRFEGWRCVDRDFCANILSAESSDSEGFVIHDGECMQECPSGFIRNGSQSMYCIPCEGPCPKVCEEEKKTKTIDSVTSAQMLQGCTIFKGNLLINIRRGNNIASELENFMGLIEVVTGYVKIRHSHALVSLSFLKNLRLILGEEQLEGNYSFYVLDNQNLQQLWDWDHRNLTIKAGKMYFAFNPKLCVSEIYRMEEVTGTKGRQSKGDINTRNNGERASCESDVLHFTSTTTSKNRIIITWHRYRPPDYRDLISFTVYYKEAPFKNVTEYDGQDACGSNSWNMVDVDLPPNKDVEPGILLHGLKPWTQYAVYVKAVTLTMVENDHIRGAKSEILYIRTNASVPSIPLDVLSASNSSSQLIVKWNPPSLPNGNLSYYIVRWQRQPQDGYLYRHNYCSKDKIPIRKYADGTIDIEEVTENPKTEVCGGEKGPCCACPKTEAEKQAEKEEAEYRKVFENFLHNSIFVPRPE
Chain of Insulin-like growth factor 1 receptor (Homo sapiens) (P08069 741-1367 limits assumed): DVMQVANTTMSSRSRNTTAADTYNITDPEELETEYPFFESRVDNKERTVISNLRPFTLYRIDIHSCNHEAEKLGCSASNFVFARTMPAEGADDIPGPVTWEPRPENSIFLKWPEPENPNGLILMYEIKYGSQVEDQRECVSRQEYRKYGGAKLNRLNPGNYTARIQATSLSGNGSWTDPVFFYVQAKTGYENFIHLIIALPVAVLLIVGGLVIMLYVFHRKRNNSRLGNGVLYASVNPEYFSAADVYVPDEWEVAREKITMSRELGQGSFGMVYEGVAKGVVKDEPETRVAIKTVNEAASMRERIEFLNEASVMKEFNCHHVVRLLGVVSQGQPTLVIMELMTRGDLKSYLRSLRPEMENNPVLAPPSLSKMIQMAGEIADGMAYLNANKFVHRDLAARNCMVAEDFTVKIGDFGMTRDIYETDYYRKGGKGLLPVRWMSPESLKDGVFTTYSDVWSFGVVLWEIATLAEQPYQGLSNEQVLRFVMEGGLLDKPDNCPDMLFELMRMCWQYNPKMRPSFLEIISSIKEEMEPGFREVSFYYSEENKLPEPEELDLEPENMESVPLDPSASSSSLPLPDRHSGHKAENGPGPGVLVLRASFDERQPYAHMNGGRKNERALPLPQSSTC

[20] = target: Inhibitor of nuclear factor kappa-B kinase subunit alpha (Homo sapiens) (UniProt O15111); assay: IKKalpha(h) Kinase panel; conditions: Compound concentration 1.0 uM, tested as the 2H-labelled form
[21] = target: Insulin receptor-related protein (Homo sapiens) (UniProt P14616); assay: IRR(h) Kinase panel; conditions: Compound concentration 1.0 uM, tested as the 2H-labelled form
[22] = target: Mitogen-activated protein kinase kinase kinase kinase 4 (Homo sapiens) (UniProt O95819); assay: MAP4K4(h) Kinase panel; conditions: Compound concentration 1.0 uM, tested as the 2H-labelled form
[23] = target: MAP kinase-activated protein kinase 2 (Homo sapiens) (UniProt P49137); assay: MAPKAP-K2(h) Kinase panel; conditions: Compound concentration 1.0 uM, tested as the 2H-labelled form
Chain of MAP kinase-activated protein kinase 2 (Homo sapiens) (P49137 whole entry, looked up): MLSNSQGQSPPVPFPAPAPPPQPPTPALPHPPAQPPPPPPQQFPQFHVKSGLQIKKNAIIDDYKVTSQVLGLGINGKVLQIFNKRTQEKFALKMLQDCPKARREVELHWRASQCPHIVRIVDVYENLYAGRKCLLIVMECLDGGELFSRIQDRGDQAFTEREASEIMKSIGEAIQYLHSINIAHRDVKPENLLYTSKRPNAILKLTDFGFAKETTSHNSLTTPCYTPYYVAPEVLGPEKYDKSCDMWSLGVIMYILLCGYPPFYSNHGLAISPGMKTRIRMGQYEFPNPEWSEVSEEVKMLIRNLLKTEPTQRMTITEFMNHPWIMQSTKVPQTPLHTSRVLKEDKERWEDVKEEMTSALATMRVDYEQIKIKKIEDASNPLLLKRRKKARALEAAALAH

[24] = target: Hepatocyte growth factor receptor (Homo sapiens) (UniProt P08581); assay: Met(h) Kinase panel; conditions: Compound concentration 1.0 uM, tested as the 2H-labelled form
[25] = target: Myosin light chain kinase (Homo sapiens) (UniProt Q32MK0); assay: MLCK(h) Kinase panel; conditions: Compound concentration 1.0 uM, tested as the 2H-labelled form
[26] = target: Serine/threonine-protein kinase Nek4 (Homo sapiens) (UniProt P51957); assay: NEK4(h) Kinase panel; conditions: Compound concentration 1.0 uM, tested as the 2H-labelled form
[27] = target: Serine/threonine-protein kinase PAK 6 (Homo sapiens) (UniProt Q9NQU5); assay: PAK6(h) Kinase panel; conditions: Compound concentration 1.0 uM, tested as the 2H-labelled form
Chain of Serine/threonine-protein kinase PAK 6 (Homo sapiens) (Q9NQU5 whole entry, looked up): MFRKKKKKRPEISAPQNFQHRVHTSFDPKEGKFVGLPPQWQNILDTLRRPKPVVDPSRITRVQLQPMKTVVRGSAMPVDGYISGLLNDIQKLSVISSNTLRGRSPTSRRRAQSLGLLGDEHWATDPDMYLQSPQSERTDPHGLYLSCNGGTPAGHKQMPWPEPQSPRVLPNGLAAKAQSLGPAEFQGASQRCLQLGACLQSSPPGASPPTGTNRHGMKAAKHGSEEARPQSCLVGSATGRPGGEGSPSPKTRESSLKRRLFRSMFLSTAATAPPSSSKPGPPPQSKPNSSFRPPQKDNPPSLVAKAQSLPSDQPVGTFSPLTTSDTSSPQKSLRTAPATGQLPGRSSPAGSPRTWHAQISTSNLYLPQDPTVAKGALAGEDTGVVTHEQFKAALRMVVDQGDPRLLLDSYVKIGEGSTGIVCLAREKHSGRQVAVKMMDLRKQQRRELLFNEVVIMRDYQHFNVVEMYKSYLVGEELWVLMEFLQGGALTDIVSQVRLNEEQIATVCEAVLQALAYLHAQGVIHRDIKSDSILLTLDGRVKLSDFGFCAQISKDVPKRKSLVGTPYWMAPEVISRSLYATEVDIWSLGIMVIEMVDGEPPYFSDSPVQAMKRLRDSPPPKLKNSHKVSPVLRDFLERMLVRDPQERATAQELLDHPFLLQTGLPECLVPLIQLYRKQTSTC

[28] = target: Serine/threonine-protein kinase pim-3 (Homo sapiens) (UniProt Q86V86); assay: Pim-3(h) Kinase panel; conditions: Compound concentration 1.0 uM, tested as the 2H-labelled form
[29] = target: Protein kinase C gamma type (Homo sapiens) (UniProt P05129); assay: PKCgamma(h) Kinase panel; conditions: Compound concentration 1.0 uM, tested as the 2H-labelled form
[30] = target: Protein kinase C delta type (Homo sapiens) (UniProt Q05655); assay: PKCdelta (h) Kinase panel; conditions: Compound concentration 1.0 uM, tested as the 2H-labelled form
[31] = target: Protein kinase C epsilon type (Homo sapiens) (UniProt Q02156); assay: PKCepsilon (h) Kinase panel; conditions: Compound concentration 1.0 uM, tested as the 2H-labelled form
[32] = target: Mitogen-activated protein kinase 14 (Homo sapiens, UniProt Q16539); assay: SAPK2a(h) Kinase panel; conditions: Compound concentration 1.0 uM, tested as the 2H-labelled form
Chain of Mitogen-activated protein kinase 14 (Q16539 whole entry): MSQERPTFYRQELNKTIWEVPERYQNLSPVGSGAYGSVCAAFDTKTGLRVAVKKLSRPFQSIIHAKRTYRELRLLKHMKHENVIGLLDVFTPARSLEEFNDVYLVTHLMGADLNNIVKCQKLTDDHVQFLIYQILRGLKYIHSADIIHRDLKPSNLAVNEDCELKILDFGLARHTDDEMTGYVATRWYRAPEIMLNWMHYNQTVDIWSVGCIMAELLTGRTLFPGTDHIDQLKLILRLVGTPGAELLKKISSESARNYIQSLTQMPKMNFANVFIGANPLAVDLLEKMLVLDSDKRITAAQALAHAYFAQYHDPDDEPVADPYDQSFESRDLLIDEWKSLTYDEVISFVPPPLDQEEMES

[33] = target: Mitogen-activated protein kinase 12 (Homo sapiens) (UniProt P53778); assay: SAPK3(h) Kinase panel; conditions: Compound concentration 1.0 uM, tested as the 2H-labelled form
[34] = target: Serine/threonine-protein kinase 16 (Homo sapiens) (UniProt O75716); assay: STK16(h) Kinase panel; conditions: Compound concentration 1.0 uM, tested as the 2H-labelled form
[35] = target: Serine/threonine-protein kinase 32B (Homo sapiens) (UniProt Q9NY57); assay: STK32B(h) Kinase panel; conditions: Compound concentration 1.0 uM, tested as the 2H-labelled form
[36] = target: Tau-tubulin kinase 1 (Homo sapiens) (UniProt Q5TCY1); assay: TTBK1(h) Kinase panel; conditions: Compound concentration 1.0 uM, tested as the 2H-labelled form
[37] = target: Wee1-like protein kinase (Homo sapiens) (UniProt P30291); assay: Wee1(h) Kinase panel; conditions: Compound concentration 1.0 uM, tested as the 2H-labelled form
[38] = target: Serine/threonine-protein kinase WNK3 (Homo sapiens) (UniProt Q9BYP7); assay: WNK3(h) Kinase panel; conditions: Compound concentration 1.0 uM, tested as the 2H-labelled form
[39] = target: Phosphatidylinositol 4-phosphate 5-kinase type-1 gamma (Homo sapiens) (UniProt O60331); assay: PIP5K1g(h) Kinase panel; conditions: Compound concentration 1.0 uM, tested as the 2H-labelled form
[40] = target: 5-hydroxytryptamine receptor 1B (Homo sapiens) (UniProt P28222); conditions: Compound concentration 10.0 uM, tested as the 2H-labelled form
[41] = target: 5-hydroxytryptamine receptor 2B (Homo sapiens) (UniProt P41595); conditions: Compound concentration 10.0 uM, tested as the 2H-labelled form
[42] = target: Histamine H1 receptor (Homo sapiens) (UniProt P35367); conditions: Compound concentration 10.0 uM, tested as the 2H-labelled form
[43] = target: Muscarinic acetylcholine receptor M2 (Homo sapiens) (UniProt P08172); conditions: Compound concentration 10.0 uM, tested as the 2H-labelled form
[44] = target: Muscarinic acetylcholine receptor M3 (Homo sapiens) (UniProt P20309); conditions: Compound concentration 10.0 uM, tested as the 2H-labelled form
Chain of Muscarinic acetylcholine receptor M3 (Homo sapiens) (P20309 whole entry, looked up): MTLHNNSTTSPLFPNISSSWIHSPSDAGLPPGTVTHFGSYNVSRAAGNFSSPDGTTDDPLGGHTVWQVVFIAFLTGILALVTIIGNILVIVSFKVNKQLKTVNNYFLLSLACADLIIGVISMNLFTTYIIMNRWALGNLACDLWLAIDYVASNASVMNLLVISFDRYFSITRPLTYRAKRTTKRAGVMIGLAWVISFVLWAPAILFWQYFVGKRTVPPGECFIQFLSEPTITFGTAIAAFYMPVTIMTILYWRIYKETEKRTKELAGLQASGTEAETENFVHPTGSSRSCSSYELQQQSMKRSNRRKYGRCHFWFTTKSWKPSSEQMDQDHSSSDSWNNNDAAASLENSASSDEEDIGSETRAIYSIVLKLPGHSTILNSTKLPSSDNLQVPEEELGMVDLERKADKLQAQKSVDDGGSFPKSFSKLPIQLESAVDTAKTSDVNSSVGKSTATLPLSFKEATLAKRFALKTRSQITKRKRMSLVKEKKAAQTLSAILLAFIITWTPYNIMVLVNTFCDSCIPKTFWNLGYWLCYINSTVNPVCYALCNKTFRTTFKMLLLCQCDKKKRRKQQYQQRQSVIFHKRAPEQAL

[45] = target: Muscarinic acetylcholine receptor M5 (Homo sapiens) (UniProt P08912); conditions: Compound concentration 10.0 uM, tested as the 2H-labelled form
[46] = target: Casein kinase I isoform delta (Homo sapiens, UniProt P48730); conditions: Compound concentration 1.0 uM
[47] = target: 3-phosphoinositide-dependent protein kinase 1 (Homo sapiens) (UniProt O15530); assay: PDK1(h) Kinase panel; conditions: Compound concentration 1.0 uM, tested as the 2H-labelled form

inhibition [1]: 25% | inhibition [2]: -5% | inhibition [3]: 7% | inhibition [4]: -4% | inhibition [5]: 16% | inhibition [6]: -8% | inhibition [7]: -3% | inhibition [8]: 11% | inhibition [9]: 0% | inhibition [10]: -2% | inhibition [11]: 4% | inhibition [12]: -3% | inhibition [13]: 8% | inhibition [14]: 5% | inhibition [15]: 20% | inhibition [16]: 21% | inhibition [17]: -6% | inhibition [18]: 10% | inhibition [19]: 1% | inhibition [20]: 8% | inhibition [21]: -4% | inhibition [22]: 21% | inhibition [23]: -1% | inhibition [24]: 8% | inhibition [25]: 19% | inhibition [26]: 7% | inhibition [27]: 5% | inhibition [28]: 4% | inhibition [29]: 3% | inhibition [30]: 0% | inhibition [31]: -5% | inhibition [32]: 12% | inhibition [33]: 28% | inhibition [34]: 8% | inhibition [35]: 0% | inhibition [36]: 19% | inhibition [37]: 10% | inhibition [38]: -2% | inhibition [39]: -1% | inhibition [40]: 12.4% | inhibition [41]: 6.01% | inhibition [42]: -9.94% | inhibition [43]: -0.4% | inhibition [44]: -2.78% | inhibition [45]: -5.3% | inhibition [46]: 105% | inhibition [47]: 9%
Compound: CC1(C)Cn2nc(-c3ccc(F)cn3)c(-c3ccnc4[nH]ncc34)c2CO1
